One assay has as its system D4 receptor. In words: D4 receptor binding (displacement of 3H-YM 09151-2, COS cells with recombinant receptor). Further details: species or system African Green monkey. The following applies: 0.5 nM 3H-YM 09151-2; nonspecific binding with 1 mM spiperone. How it is done:
Pellets of COS cells containing recombinantly produced D2 or D4 receptors from African Green monkey are used for the assays. The sample is homogenized in 100 volumes (w/vol) of 0.05 M Tris HCl buffer at […] and pH 7.4. The sample is then centrifuged at 30,000×g and resuspended and rehomogenized. The sample is then centrifuged again at 30,000×g and the final tissue sample is frozen until use. The tissue is resuspended 1:20 (wt/vol) in 0.05 M Tris HCl buffer containing 100 mM NaCl.

Another assay has as its target D2 receptor (Chlorocebus aethiops, UniProt P52702). In words: D2 receptor binding (displacement of 3H-YM 09151-2, COS cells with recombinant receptor). Further details: species or system African Green monkey. As to conditions: 0.5 nM 3H-YM 09151-2; nonspecific binding with 1 mM spiperone.

Where a name gives a salt, the structure may show the parent alone.

D2 receptor, sequence (P52702 whole entry): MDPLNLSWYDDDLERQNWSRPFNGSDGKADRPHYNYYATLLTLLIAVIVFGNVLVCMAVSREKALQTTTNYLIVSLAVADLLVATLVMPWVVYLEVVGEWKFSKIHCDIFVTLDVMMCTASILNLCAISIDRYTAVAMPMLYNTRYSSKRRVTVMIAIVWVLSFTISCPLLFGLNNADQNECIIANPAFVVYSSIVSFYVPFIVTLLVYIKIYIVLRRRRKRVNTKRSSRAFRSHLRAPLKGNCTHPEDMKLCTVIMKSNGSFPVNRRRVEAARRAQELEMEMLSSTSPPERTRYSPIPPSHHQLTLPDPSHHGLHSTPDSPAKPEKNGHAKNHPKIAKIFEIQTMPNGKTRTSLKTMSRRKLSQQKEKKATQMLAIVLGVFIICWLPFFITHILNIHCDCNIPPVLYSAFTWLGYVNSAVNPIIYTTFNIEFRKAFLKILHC

For `c1ccc(CC2CCN(Cc3c[nH]c(-c4ccc5c(c4)CCO5)n3)CC2)cc1` [Compound 6, 2-(2,3-Dihydrobenzofuran-5-yl)-4-(1-[4-benzylpiperidin-1-yl]methyl)imidazole hydrochloride], the Ki in the assay on D4 receptor is 3 nM; on D2 receptor it was 650 nM.

On to `c1ccc2nc(N3CCN(Cc4cnc(-c5ccc6c(c5)CCO6)[nH]4)CC3)ncc2c1` [Compound 7, 2-(2,3-Dihydrobenzofuran-5-yl)-4-(1-[4-{4,5-benzopyrimidin-2-yl}piperazin-1-yl]methyl)imidazole hydrochloride], for which the inhibition constant Ki is 32 nM in the assay with D4 receptor and 1130 nM on D2 receptor.

As for `c1ccc2c(N3CCN(Cc4c[nH]c(-c5ccc6c(c5)CCO6)n4)CC3)nccc2c1` [Compound 8, 2-(2,3-Dihydrobenzofuran-5-yl)-4-(1-[4-{isoquinolin-1-yl}piperazin-1-yl]methyl)imidazole], the figures for the inhibition constant Ki in the assay with D4 receptor and at D2 receptor were 1 nM and 125 nM, respectively.

Take `Cc1cnc(N2CCN(Cc3cnc(-c4ccc5c(c4)CCO5)[nH]3)CC2)nc1` [Compound 3a, 5-(5-{[4-(5-methylpyrimidin-2-yl)piperazinyl]-methyl}imidazol-2-yl)-2,3-dihydrobenzo[b]furan]: the inhibition constant Ki at D2 receptor stood at 716 nM.

For the compound `COc1ccccc1N1CCN(Cc2c[nH]c(-c3ccc4c(c3)CCO4)n2)CC1` [Compound 1, 2-(2,3-Dihydrobenzofuran-5-yl)-4-(1-[4-{2-methoxyphenyl}piperazin-1-yl]methyl)imidazole], the Ki in the assay with D4 receptor was 3 nM; on D2 receptor, 143 nM.

For the origin of these results see patent US6288230A, “2-(2, 3-dihydrobenzofuran-5-yl)-4-aminomethylimidazoles: dopamine receptor subtype specific ligands” (Neurogen Corporation, priority 1999, dated 2001).
